Reference: patent US5668134A, “Method for preventing or reducing photosensitivity and/or phototoxicity reactions to medications” (priority 1994, dated 1997)
Several values for one entry are separate records, joined by “and”; a condition that tells them apart may be missing. Equal values may be shown once. Where a name gives a salt, the structure may show the parent alone. Read-outs that look alike come from different tables or passages of the source.

Legend:
[1] = Pharmacokinetics in the geriatric population; format: in vivo, human
Text: This slower elimination most likely reflects the decreased renal function normally observed in the geriatric population.

Pseudomonas aeruginosa = assay: Activity in vitro and in clinical infections; format: cell-based
[2] = test system: skin of healthy volunteers; parameters: species or system human; conditions: in vivo
Experimental: (§1) This study describes a randomized, single site, double-blind, two treatment, two period, two sequence, cross-over clinical pharmacology study which was performed according to FDA regulations in 27 healthy normal volunteers with fair skin that could easily burn when exposed to sunlight, to assess the photosensitivity and/or phototoxicity potential of oral 400 mg lomefloxacin hydrochloride (MAXAQUIN®) administered once daily for 4 consecutive days either in the morning (morning dose group), as described hereinbelow, or in the early evening (evening dose group), as described hereinbelow. Irradiation and evaluation of irradiated sites began at 2 hours after the final morning dose of lomefloxacin HCl for the morning dosing group, and began 16 hours after the final evening dose of lomefloxacin HCl for the evening dosing group.
(§2) "Baseline MED" was defined as the lowest dose of UVA radiation alone, or UVA and UVB radiation, that produced a minimal perceptible erythema filling a 1 cm^2 patch of skin 24 hours post radiation.
(§3) "Delayed MED" was defined as the lowest dose of UVA radiation alone, or UVA and UVB radiation, that produced a minimal perceptible erythema filling a 1 cm^2 patch of skin, when testing the area 24, 48 and 72 hours post radiation.
(§4) "Immediate MED" was defined as the lowest dose producing minimal perceptible erythema filling a 1 cm^2 patch of skin when testing the area 0, 3, and 6 hours post radiation.
(§5) After all baseline procedures, including determination of baseline MEDUVA and MEDUVA+UVB values 24 hours post-radiation, were completed, all subjects started Study Day 1 of Treatment Period 1 with an evening dose of study medication, and completed this phase of the treatment regime with a morning dose of study medication on Study Day 5. Two hours after the final morning dose, and 16 hours after the last evening dose, a randomly selected site composed of six patches of skin, each with an area of one square centimeter, on the back or buttock of the subject was irradiated with incremental amounts of energy. Immediately following irradiation (0 hour), and at 3, 6, 24, 48 and 72 hours following irradiation, each skin patch area was evaluated to determine the MEDs, and assess the severity of skin reaction using a five-grade system, as described hereinbelow. The lowest of the MEDs determined at 0, 3 and 6 hours post-radiation were referred to as immediate MEDs, and the lowest of the MEDs determined at 24, 48 and 72 hours post-radiation were referred to as delayed MEDs.
(§6) The source of radiation employed was an Oriel (Santa Monica, Calif.) Xenon Arc 1000 watt solar simulator, with the following filters: WG320 filter (1 mm thick, emitting full spectrum UVA and UVB radiation), WG335 filter (3 mm thick, emitting almost exclusively UVA radiation) or UG11 filter (to filter infrared radiation).
(§7) For predrug exposure MED determination, 2 sets each with six 1 cm^2 patches on the back or buttocks were irradiated with increasing doses of UVA and UVB radiation, and UVA radiation alone, up to 7 days prior to beginning of drug treatment. With respect to UVA light source, irradiation began at 5 J/cm^2, and was increased by increments of 5 J/cm^2 using a different skin patch for each exposure. The maximum radiation dose was 30 J/cm^2. Subjects with MED greater than 30 J/cm^2 were excluded from the study. […] A different skin patch was used for each exposure.
(§8) Two hours after the administration of the last dose of Treatment Period 1 (a.m. dose), the two randomly selected sites on each subject's back or buttocks were exposed one to UVA and UVB radiation, and one to UVA radiation alone. In order to protect the subjects from excessive radiation, as well as assess the true Minimum Erythema Dose (MED), the posttreatment irradiation doses for each subject was adjusted in accordance with their pretreatment MEDs. The following table was used to determine each subject's minimum and maximum posttreatment radiation dose: […]

[3] = test system: skin of healthy volunteers; assay: Example 5: Minimum Erythema Dose with UVA radiation, morning vs evening dosing; format: in vivo, human; conditions: for phototoxicity of evening versus morning dosing: UVA exposure 16 hours vs 2 hours after dosing; for DELAYED MED / IMMEDIATE MED / MED, 0 H / MED, 3 H / MED, 6 H / MED, 24 H / MED, 48 H / MED, 72 H / CHANGE BASELINE, delayed MED / CHANGE BASELINE, immediate MED: individual subjects; for MED, 0 H: 0 H post-radiation; for MED, 3 H: 3 H post-radiation; for MED, 6 H: 6 H post-radiation; for MED, 24 H: 24 H post-radiation; for MED, 48 H: 48 H post-radiation; for MED, 72 H: 72 H post-radiation; for CHANGE BASELINE, delayed MED / CHANGE BASELINE, immediate MED: baseline minus posttreatment
Experimental: as §1, §2, §3, §4, §5, §6, §7, §8

[4] = mean, UVA, a.m. dosing, p=0.002

## CCn1cc(C(=O)O)c(=O)c2cc(F)c(N3CCNC(C)C3)c(F)c21 (racemic) [lomefloxacin HCl, monohydrochloride salt of (±)-1-ethyl-6,8-difluoro-1,4-dihydro-7-(3-methyl-1-piperazinyl)-4-oxo-3-quinolinecarboxylic acid]
[1]; elderly vs younger subjects
  increase of AUC: approximately 33%
  reduction of plasma clearance: approximately 25%
[1]; human, in vivo, 16 elderly volunteers, single 400 mg dose
  half-life: 8 h
[1]; human, plasma, 16 elderly volunteers, single 400 mg dose, read-out: peak plasma concentration, mean
  Cmax: 4200 ng/mL
[1]; single 400 mg dose
  drug absorption in the elderly: unaffected in the elderly
Pseudomonas aeruginosa
  activity against most strains: active against most strains
[2]
  MED, 0 H, mean: 0.094 J/cm^2
  amount of UVA+UVB radiation to give MED versus UVA alone: over 100 times less
  change of immediate MEDUVA+UVB from baseline: not statistically significant
  change of immediate and delayed MEDUVA+UVB from baseline: neither the changes between baseline and posttreatment immediate MEDUVA+UVB, nor between baseline and posttreatment delayed MEDUVA+UVB, were statistically significant
  change of immediate and delayed MEDUVA+UVB, a.m. versus p.m.: statistically significant difference
  photosensitivity with UVA plus UVB radiation: no increase in photosensitivity
[3]
  phototoxicity of evening versus morning dosing: less sensitive to light
[3]; listed as MAXAQUIN®
  phototoxicity of evening versus morning dosing: significantly less phototoxic
[3]; in vivo
  mean change of delayed MEDUVA, a.m. versus p.m.: statistically significant difference
  treatment effect on delayed MEDUVA, conservative analysis: statistically significant treatment effect
[3]; UVA, a.m. dosing
  DELAYED MED: 10.000 J/cm^2 and 20.000 J/cm^2 and 15.000 J/cm^2 and 30.000 J/cm^2 and 25.000 J/cm^2
  IMMEDIATE MED: 15.000 J/cm^2 and 20.000 J/cm^2 and 30.000 J/cm^2 and 25.000 J/cm^2
  MED, 0 H: 25.000 J/cm^2 and 30.000 J/cm^2 and 15.000 J/cm^2
  MED, 3 H: 15.000 J/cm^2 and 20.000 J/cm^2 and 25.000 J/cm^2
  MED, 6 H: 15.000 J/cm^2 and 20.000 J/cm^2 and 30.000 J/cm^2 and 25.000 J/cm^2
  MED, 24 H: 10.000 J/cm^2 and 20.000 J/cm^2 and 15.000 J/cm^2 and 30.000 J/cm^2 and 25.000 J/cm^2
  MED, 48 H: 15.000 J/cm^2 and 25.000 J/cm^2 and 30.000 J/cm^2 and 20.000 J/cm^2
  MED, 72 H: 15.000 J/cm^2 and 25.000 J/cm^2 and 20.000 J/cm^2 and 30.000 J/cm^2
  CHANGE BASELINE, delayed MED: 20.000 J/cm^2 and 5.000 J/cm^2 and 10.000 J/cm^2 and -5.000 J/cm^2
  CHANGE BASELINE, immediate MED: 15.000 J/cm^2 and 5.000 J/cm^2 and 10.000 J/cm^2 and -5.000 J/cm^2
[3]; UVA, p.m. dosing
  DELAYED MED: 30.000 J/cm^2 and 25.000 J/cm^2 and 20.000 J/cm^2
  IMMEDIATE MED: 30.000 J/cm^2 and 25.000 J/cm^2
  MED, 0 H: 30.000 J/cm^2 and 25.000 J/cm^2
  MED, 3 H: 30.000 J/cm^2
  MED, 6 H: 30.000 J/cm^2 and 25.000 J/cm^2
  MED, 24 H: 30.000 J/cm^2 and 25.000 J/cm^2
  MED, 48 H: 30.000 J/cm^2 and 20.000 J/cm^2 and 25.000 J/cm^2
  MED, 72 H: 30.000 J/cm^2 and 25.000 J/cm^2
  CHANGE BASELINE, delayed MED: -5.000 J/cm^2 and 0.000 J/cm^2 and 5.000 J/cm^2
  CHANGE BASELINE, immediate MED: -5.000 J/cm^2 and 5.000 J/cm^2 and 0.000 J/cm^2
[3]; mean, UVA, a.m. dosing
  DELAYED MED, mean: 20.000 J/cm^2
  IMMEDIATE MED, mean: 19.615 J/cm^2
  MED, 0 H, mean: 25.500 J/cm^2
  MED, 3 H, mean: 20.833 J/cm^2
  MED, 6 H, mean: 19.615 J/cm^2
  MED, 24 H, mean: 20.385 J/cm^2
  MED, 48 H, mean: 22.692 J/cm^2
  MED, 72 H, mean: 23.077 J/cm^2
[3]; [4]
  CHANGE BASELINE, delayed MED, mean: 6.5 J/cm^2 and 6.538 J/cm^2
  CHANGE BASELINE, immediate MED, mean: 6.923 J/cm^2 and 6.9 J/cm^2
[3]; mean, UVA, p.m. dosing
  DELAYED MED, mean: 27.917 J/cm^2
  IMMEDIATE MED, mean: 28.750 J/cm^2
  MED, 0 H, mean: 28.333 J/cm^2
  MED, 3 H, mean: 30.000 J/cm^2
  MED, 6 H, mean: 28.750 J/cm^2
  MED, 24 H, mean: 28.333 J/cm^2
  MED, 48 H, mean: 28.182 J/cm^2
  MED, 72 H, mean: 28.500 J/cm^2
[3]; mean, UVA, p.m. dosing, p=1.000
  CHANGE BASELINE, delayed MED, mean: 0.000 J/cm^2
